Measurements taken from US20100210649A1, “PYRIDAZINONES AND FURAN-CONTAINING COMPOUNDS” (Sloan-Kettering Institute for Cancer Research, priority 2006, published 2010).
Like-named read-outs stand apart in the source and are kept apart here.

How the values were obtained:
[1] = tested on: H1734; experiment: Non Small Cell Lung Cancer proliferation assay (Alamar Blue reduction), H1734; assay type: cell-based, human; conditions: Homo sapiens, NCI-H1734
Experimental: These cells have a doubling time of 1-2 days. All cell types are adherent and grow in colonies. The cells should be kept at a density between 50,000 cells/mL -500,000 cells/mL to provide for optimum growth and adequate nutrition. The cell line should be maintained at 37° C. in a humidified atmosphere with 5% CO2 in a sterile cell culture incubator.
Non Small Cell Lung Cancer Proliferation Assay.
(§1) High Controls for this assay are made by treating Non Small Cell Lung Cancer cells with 5 ul of 10% DMSO. [Final concentration in this assay is 1% DMSO].
Important Note: All compounds for testing in this assay should be done at the final concentration of 1% DMSO.
(§2) After addition, the cells are placed in cell culture incubator at 37° C. for 48 hours for complete treatment.
After drug treatment, cytotoxicity is measured by Alamar Blue reduction.
(§3) The cells are incubated for 48 hours at 37° C. to complete the Alamar Blue reduction.
(§4) The final step in the assay is to measure the amount of Alamar Blue reduction. […] The Alamar Blue fluorescence is measured at an excitation of 530 nm and emission of 590 nm.
For the NSCLC project, the cell based assay was screened against a small molecule library of approximately 200,000 compounds. The compound library is stored in our automated robotic freezer (Biophile) at −20° C. in 100% DMSO. Compound freeze and thaw cycles are kept to a minimum. […] This assay was performed on a fully automated linear track robotic platform (CRS F3 Robot System, Thermo Electron Corp., Ontario, Canada) utilizing several integrated peripherals for plate handling, liquid dispensing, and readout detection. […] The microplates are then placed at 37° C. for 48 hours to complete treatment of cells with compounds. Next, 5 ul of alamar blue was added using a liquid dispenser (Flexprop Precision Dispenser, Perkin Elmer, Mass., USA) and incubated for 48 hours at 37° C. The alamar blue prompt fluorescence was measured on Victor V (Victor^3 V, Perkin Elmer, Mass., USA) and output data files were loaded into ORIS (Oncology Research Informatics System, MSKCC, NY, USA), a screening data acquisition and analysis platform.
(§5) The dose response studies were done with the following standard procedure. First, the cells were counted and dispensed at 250 cells/well into 384-well microplates with compound. The cells were incubated for 48 hours at 37 C to complete treatment, and then alamar blue was added for an additional 48 hours. Finally, alamar blue reduction was measured and the data was loaded into ORIS, our data screening acquisition platform.

[2] = tested on: HPL1D (human peripheral lung epithelial) cell line; experiment: Cell proliferation / dose response (Alamar Blue), HPL1D; assay type: cell-based; conditions: HPL1D, 12 point doubling dilution 10 uM to 5 nM, 48 h treatment, alamar blue additional 48 h, read-out: IC50 HPL1D
Experimental: WI-38: human lung fibroblast cell line. […] WT: wildtype; WT*: over-expressed wildtype. Dose response studies against 34 compounds from the pyridazinone and phenylfuran-carboxamide class were conducted. […] In addition, Tarceva was included in these dose response studies. The dose response studies were done with the following standard procedure. […] The cells were incubated for 48 hours at 37 C to complete treatment, and then alamar blue was added for an additional 48 hours. Finally, alamar blue reduction was measured and the data was loaded into ORIS, our data screening acquisition platform.

[3] = tested on: H1650; experiment: Non Small Cell Lung Cancer proliferation assay (Alamar Blue reduction), H1650; assay type: cell-based, human; conditions: Homo sapiens
Method in brief: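 Human NSCLC cells were seeded at 250 cells/well with compound at a final 1% DMSO and treated for 48 hours at 37° C. 1% DMSO served as the high control.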

[4] = tested on: H2444; experiment: Dose response study (Alamar Blue), H2444; assay type: cell-based; conditions: Homo sapiens, NCI-H2444; H2444; 12 point doubling dilution 10 uM to 5 nM; 48 h treatment, alamar blue additional 48 h; read-out: IC50 H2444
Experimental: (§6) Dose response studies against 34 compounds from the pyridazinone and phenylfuran-carboxamide class were conducted. […] In addition, Tarceva was included in these dose response studies.
as §5

[5] = tested on: H820; experiment: Dose response study (Alamar Blue), H820; assay type: cell-based; conditions: Homo sapiens, NCI-H820; H820; 12 point doubling dilution 10 uM to 5 nM; 48 h treatment, alamar blue additional 48 h; read-out: IC50 H820
Experimental: as §6, §5

[6] = tested on: H1118; experiment: Non Small Cell Lung Cancer proliferation assay (Alamar Blue reduction), H1118; assay type: cell-based; conditions: Homo sapiens; H1118; 12 point doubling dilution 10 uM to 5 nM; 48 h treatment, alamar blue additional 48 h; read-out: IC50 H1118
Experimental: Non Small Cell Lung Cancer Proliferation Assay. To perform the assay, the Non Small Cell Lung Cancer lines are diluted in media and plated into 384 well microplates at a final density of 250 cells in […]. To ensure consistency and minimal pipetting error, the cells are plated using the Multidrop 384 with the following settings: Rocker Switch set at 384, Volume 45 and Column 24.
Low Controls for this assay are made by treating Non Small Cell Lung Cancer cells with 5 ul of staurosporine at 250 uM in 10% DMSO and 1% SDS. [Final concentration in this assay is 25 uM staurosporine in 1% DMSO and 0.1% SDS.]
as §1
The remaining wells of the 384 microplate may be treated with different compounds depending on the study. Important Note: All compounds for testing in this assay should be done at the final concentration of 1% DMSO.
as §2
After drug treatment, cytotoxicity is measured by Alamar Blue reduction. 5 μL of Alamar Blue is added to the 384 microplates using the Flexdrop.
as §3, §4
For the NSCLC project, the cell based assay was screened against a small molecule library of approximately 200,000 compounds. The compound library is stored in our automated robotic freezer (Biophile) at −20° C. in 100% DMSO. Compound freeze and thaw cycles are kept to a minimum. Compounds for use are diluted into the appropriate concentration and plated into 384 well microplates using our custom built low volume 384-well head tool (TPS 384, Apricot Designs Inc., CA, USA). This assay was performed on a fully automated linear track robotic platform (CRS F3 Robot System, Thermo Electron Corp., Ontario, Canada) utilizing several integrated peripherals for plate handling, liquid dispensing, and readout detection. First, non-small cell lung cancer cell lines are dispensed into 384 well microplates (Corning #3712 Tissue Culture Treated Plate, Corning, N.Y., USA) with 5 μL of test compounds at 100 uM in 10% DMSO for screening studies or […] in 10% DMSO to 50 nM in 10% DMSO for dose response studies. The microplates are then placed at 37° C. for 48 hours to complete treatment of cells with compounds. Next, 5 ul of alamar blue was added using a liquid dispenser (Flexprop Precision Dispenser, Perkin Elmer, Mass., USA) and incubated for 48 hours at 37° C. The alamar blue prompt fluorescence was measured on Victor V (Victor^3 V, Perkin Elmer, Mass., USA) and output data files were loaded into ORIS (Oncology Research Informatics System, MSKCC, NY, USA), a screening data acquisition and analysis platform.
as §5

[7] = H1734, 12 point doubling dilution 10 uM to 5 nM, 48 h treatment, alamar blue additional 48 h, read-out: IC50 H1734
[8] = read-out: Dose Response (uM) H1734
[9] = NCI-H1650, 48 h, H1650, 12 point doubling dilution 10 uM to 5 nM, 48 h treatment, alamar blue additional 48 h, read-out: IC50 H1650
[10] = NCI-H1650, dose response 10 M to 5 nM, IC50, read-out: Dose Response (uM) H1650

SMILES	IC50 [1, 7]	IC50 [1, 8]	IC50 [3, 9]	IC50 [3, 10]	IC50 [4]	IC50 [5]	IC50 [6]	IC50 [2]
COc1nn(-c2cccc(C)c2)c(=O)c(Cl)c1Cl [compound 257028]	3.87 µM	2.42 µM	3.04 µM	2.04 µM	1170 nM	770 nM	1100 nM	1930 nM
O=c1c(Cl)c(Cl)cnn1Cc1ccccc1 [compound 267069]	> 10 µM	6.86 µM	> 10 µM	> 10 µM	4130 nM	2570 nM	3210 nM	5250 nM
Cc1cccc(-n2ncc(Br)c(Br)c2=O)c1 [compound 267071]	1.72 µM	0.8 µM	1.1 µM	0.74 µM	310 nM	270 nM	410 nM	240 nM
O=c1c(Br)c(Br)cnn1-c1cccc(C(F)(F)F)c1 [compound 267072]	3.19 µM	0.51 µM	2.09 µM	0.54 µM	1050 nM	820 nM	1210 nM	510 nM
O=c1c(Br)c(Br)cnn1-c1ccccn1 [compound 267073]	1.23 µM	0.72 µM	0.79 µM	0.8 µM	130 nM	100 nM	100 nM	110 nM
COc1cccc(-n2ncc(Br)c(Br)c2=O)c1 [compound 267083]	1.36 µM	1.31 µM	1.08 µM	1.06 µM	280 nM	200 nM	270 nM	220 nM
COCCOc1cccc(-n2ncc(Br)c(Br)c2=O)c1 [compound 267084]	1.5 µM	1.63 µM	1.04 µM	1.51 µM	230 nM	180 nM	230 nM	180 nM
Cc1cccc(-n2ncc(I)c(I)c2=O)c1 [compound 267085]	2.99 µM	1.94 µM	3.16 µM	1.93 µM	530 nM	410 nM	1030 nM	680 nM

Second part, led by results:

IC50 [1, 7]	IC50 [1, 8]	IC50 [3, 9]	IC50 [3, 10]	IC50 [4]	IC50 [5]	IC50 [6]	SMILES	IC50 [2]
5.23 µM	1.6 µM	3.95 µM	3.92 µM	1260 nM	1480 nM	1660 nM	O=c1c(Cl)c(Cl)cnn1-c1ccc(C(F)(F)F)cc1 [compound 267060]	560 nM
3.04 µM	2.41 µM	1.96 µM	3.52 µM	370 nM	260 nM	400 nM	COc1cccc(-n2ncc(Cl)c(Cl)c2=O)c1 [compound 267061]	290 nM
2.89 µM	1.75 µM	1.91 µM	2.48 µM	430 nM	450 nM	670 nM	CCc1cccc(-n2ncc(Cl)c(Cl)c2=O)c1 [compound 267062]	380 nM
> 10 µM	1.21 µM	> 10 µM	2.83 µM	6410 nM	6720 nM	> 10000 nM	Cc1cc(-n2ncc(Cl)c(Cl)c2=O)ccc1Br [compound 267064]	4720 nM
> 10 µM	> 10 µM	> 10 µM	> 10 µM	6370 nM	> 10000 nM	> 10000 nM	Cc1cc(-n2ncc(Cl)c(Cl)c2=O)ccc1Cl [compound 267065]	6660 nM
8.85 µM	1.45 µM	> 10 µM	1.69 µM	1530 nM	2800 nM	2730 nM	O=c1c(Cl)c(Cl)cnn1-c1ccc2c(c1)CCC2 [compound 267066]	1660 nM
> 10 µM	2.57 µM	> 10 µM	4.47 µM	6920 nM	8250 nM	> 10000 nM	Cc1nc2cc(-n3ncc(Cl)c(Cl)c3=O)ccc2s1 [compound 267067]	7010 nM
2.83 µM	2.12 µM	2.26 µM	2.33 µM	410 nM	320 nM	480 nM	O=c1c(Cl)c(Cl)cnn1-c1ccc2c(c1)OCCO2 [compound 267068]	420 nM
> 10 µM	2.69 µM	> 10 µM	> 10 µM	> 10000 nM	> 10000 nM	> 10000 nM	Cc1ccc(-n2ncc(Cl)c(Cl)c2=O)cc1Cl [compound 267070]	> 10000 nM
> 10 µM	0.52 µM	> 10 µM	0.56 µM	4680 nM	2680 nM	3730 nM	O=c1c(Cl)c(Cl)cnn1-c1ccc(Cl)cc1Cl [compound 267077]	4950 nM
2.47 µM	1.1 µM	1.42 µM	1.29 µM	220 nM	140 nM	150 nM	O=c1c(Cl)c(Cl)cnn1-c1ccccn1 [compound 267090]	170 nM
